From patent US8063067B2, “Hexenoic acid derivatives, processes for the preparation thereof, pharmaceutical compositions comprising them, and therapeutic applications thereof” (Merck Patent GmbH, priority 2004, dated 2011)
Marks after values point to notes of the source that are not given here. Each block holds one compound with its values, some of them ahead of it.

Experiments:
[1] = target: T1, chimeric protein PPARγ-Gal4 (Homo sapiens, UniProt P37231); assay: PPARγ-Gal4 chimera luciferase reporter transactivation in co-transfected CV-1 cells; type: cell-based; details: CV-1 cells (monkey kidney cells), 18 hours contact, fold relative to control cells without product
T1 construct: expressed in transfected cells; host or cells: CV-1 cells (monkey kidney cells)
T1 sequence (P37231 238-503 limits assumed): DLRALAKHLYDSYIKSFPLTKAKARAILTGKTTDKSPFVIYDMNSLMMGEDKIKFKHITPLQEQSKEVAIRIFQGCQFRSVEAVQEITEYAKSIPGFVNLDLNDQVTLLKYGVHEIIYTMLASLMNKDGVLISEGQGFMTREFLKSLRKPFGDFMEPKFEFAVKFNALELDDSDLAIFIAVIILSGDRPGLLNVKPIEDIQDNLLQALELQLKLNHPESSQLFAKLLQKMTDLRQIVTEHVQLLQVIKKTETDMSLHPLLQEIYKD
Procedure: (§1) The measurement of the PPAR activation was performed according to a technique described by Lehmann et al. (J. Biol. Chem., 270, (1995), 12953-12956).
(§2) CV-1 cells (monkey kidney cells) are co-transfected with an expression vector for the chimeric proteins PPARα-Gal4 or PPARγ-Gal4 and with a “reporter” plasmid that allows the expression of the luciferase gene placed under the control of a promoter comprising Gal4 response elements.
(§3) The cells are plated into 96-well microplates and co-transfected using a commercial reagent with the reporter plasmid (pG5-tk-pGL3) and the expression vector for the chimeric protein (PPARα-Gal4 or PPARγ-Gal4). After incubating for 4 hours, whole culture medium (comprising 10% foetal calf serum) is added to the wells. After 24 hours, the medium is removed and replaced with whole medium comprising the test products (50 μM, 25 μM and 12.5 μM final). The products are left in contact with the cells for 18 hours. The cells are then lysed and the luciferase activity is measured using a luminometer. A PPAR activation factor can then be calculated by means of activation of the expression of the reporter gene induced by the product (relative to the control cells that have not received any product).

[2] = target: T2, chimeric protein PPARα-Gal4 (Homo sapiens, UniProt Q07869); assay: PPARα-Gal4 chimera luciferase reporter transactivation in co-transfected CV-1 cells; type: cell-based; details: CV-1 cells (monkey kidney cells), 18 hours contact, fold relative to control cells without product
T2 construct: expressed in transfected cells; host or cells: CV-1 cells (monkey kidney cells)
T2 sequence (Q07869 239-466 limits assumed): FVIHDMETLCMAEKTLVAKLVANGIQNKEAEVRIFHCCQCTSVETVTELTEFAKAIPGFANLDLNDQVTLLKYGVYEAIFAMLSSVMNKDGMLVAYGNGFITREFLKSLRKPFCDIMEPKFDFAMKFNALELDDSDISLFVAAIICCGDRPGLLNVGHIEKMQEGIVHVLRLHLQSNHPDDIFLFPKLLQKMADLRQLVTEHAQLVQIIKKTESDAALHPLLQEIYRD
Procedure: as §1, §2, §3

[3] = test system: db/db mice; assay: Antidiabetic and hypolipidaemiant activity, oral, db/db mice; type: in vivo; details: oral 100 mg/kg/day
Procedure: The antidiabetic and hypolipidaemiant activity of the compounds was determined orally on db/db mice
17-week-old db/db mice are treated orally for 15 days with the compound of Example 2 (100 mg/kg/day). Each group studied comprises seven animals. After treatment for 15 days, retro-orbital samples are taken under mild anaesthesia and after fasting for four hours.
The following parameters were measured:
Assay of the glycaemia (glucose oxidase) and of the lipid parameters on the sera at D15 (COBAS): triglycerides, total cholesterol (CHOL), HDL cholesterol (HDL-C) and free fatty acids (FFA) (BioMérieux and Waco Chemicals assay kit).
The measurements reported represent mean values±standard error.

[4] = target: T3, Gal4 alone (Saccharomyces cerevisiae, UniProt P04386); assay: Luciferase reporter control with vector expressing Gal4 alone (no PPAR ligand binding domain); type: cell-based; details: CV-1 cells
T3 construct: expressed in transfected cells; host or cells: CV-1 cells (monkey kidney cells)
Procedure: CV-1 cells (monkey kidney cells) are co-transfected with an expression vector for the chimeric proteins PPARα-Gal4 or PPARγ-Gal4 and with a “reporter” plasmid that allows the expression of the luciferase gene placed under the control of a promoter comprising Gal4 response elements. The cells are plated into 96-well microplates and co-transfected using a commercial reagent with the reporter plasmid (pG5-tk-pGL3) and the expression vector for the chimeric protein (PPARα-Gal4 or PPARγ-Gal4). After incubating for 4 hours, whole culture medium (comprising 10% foetal calf serum) is added to the wells. After 24 hours, the medium is removed and replaced with whole medium comprising the test products (50 μM, 25 μM and 12.5 μM final). The products are left in contact with the cells for 18 hours. The cells are then lysed and the luciferase activity is measured using a luminometer. A PPAR activation factor can then be calculated by means of activation of the expression of the reporter gene induced by the product (relative to the control cells that have not received any product). […] In the absence of the binding domain for the PPAR α or γ ligand (vector expressing Gal4 alone), the luciferase activity measured in the presence of this product is zero.

[5] = 15 days, p < 0.05 versus control
[6] = serum at D15, mean ± standard error

T3 sequence (P04386 whole entry, the tested form may be a part): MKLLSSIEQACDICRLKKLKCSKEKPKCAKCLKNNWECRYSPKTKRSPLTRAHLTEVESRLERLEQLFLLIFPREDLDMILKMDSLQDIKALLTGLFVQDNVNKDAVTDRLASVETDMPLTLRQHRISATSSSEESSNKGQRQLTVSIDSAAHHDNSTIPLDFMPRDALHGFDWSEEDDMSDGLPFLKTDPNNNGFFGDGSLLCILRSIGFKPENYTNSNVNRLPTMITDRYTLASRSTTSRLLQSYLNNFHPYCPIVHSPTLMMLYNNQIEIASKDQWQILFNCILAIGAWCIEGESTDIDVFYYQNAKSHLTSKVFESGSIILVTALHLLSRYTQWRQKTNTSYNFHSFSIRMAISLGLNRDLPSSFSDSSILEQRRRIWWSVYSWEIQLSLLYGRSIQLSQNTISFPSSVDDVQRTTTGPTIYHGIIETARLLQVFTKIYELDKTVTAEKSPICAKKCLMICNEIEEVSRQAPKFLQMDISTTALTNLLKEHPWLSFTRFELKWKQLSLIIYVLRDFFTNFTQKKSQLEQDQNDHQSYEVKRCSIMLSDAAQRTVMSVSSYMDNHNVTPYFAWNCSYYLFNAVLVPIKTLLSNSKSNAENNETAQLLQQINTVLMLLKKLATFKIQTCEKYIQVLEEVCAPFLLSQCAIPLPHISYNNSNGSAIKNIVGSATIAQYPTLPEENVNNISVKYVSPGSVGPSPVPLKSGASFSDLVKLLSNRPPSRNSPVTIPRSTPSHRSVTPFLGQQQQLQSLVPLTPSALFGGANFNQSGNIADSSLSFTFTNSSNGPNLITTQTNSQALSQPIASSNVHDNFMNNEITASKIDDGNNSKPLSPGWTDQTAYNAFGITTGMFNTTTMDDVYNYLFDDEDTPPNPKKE

Compound: O=C(O)C(CCC1=CCCC1)Oc1ccc2oc3ccccc3c2c1 (stereo not shown) [Example 11]
melting point: 140 to 142 °C

Compound: C=CCCC(Oc1ccc(-c2ccc(F)cc2)cc1)C(=O)O (stereo not shown) [Example 12]
PPAR activation factor, Chimer γ ([1]; 12.5 μM): 1
PPAR activation factor, Chimer γ ([1]; 25 μM): 3.4
PPAR activation factor, Chimer γ ([1]; 50 μM): 15.6
PPAR activation factor, Chimer α ([2]; 12.5 μM): 4.3
PPAR activation factor, Chimer α ([2]; 25 μM): 13.1
PPAR activation factor, Chimer α ([2]; 50 μM): 19.9
melting point: 97 °C

Compound: C=CCCC(Oc1ccc(C(=O)c2ccc(Cl)cc2)cc1)C(=O)O (stereo not shown) [Example 17]
melting point: 141 °C

Compound: O=C(O)C(CCC1=CCCCC1)Oc1ccc(-c2cc3ccccc3s2)cc1 (stereo not shown) [Example 18]
melting point: 171 to 174 °C

Compound: C=CCCC(Oc1ccc(-c2ccc(Cl)cc2)cc1)C(=O)O (stereo not shown) [Example 16]
melting point: 127 °C

Compound: C=CCCC(Oc1ccc(C(F)(F)F)cc1)C(=O)O (stereo not shown) [Example 86]
melting point: 70 °C

Compound: O=C(O)C(CCC1=CCCCC1)Oc1ccc(Cl)cc1 (stereo not shown) [Example 13]
PPAR activation factor, Chimer γ ([1]; 12.5 μM): 7.2
PPAR activation factor, Chimer γ ([1]; 25 μM): 5.3
PPAR activation factor, Chimer γ ([1]; 50 μM): 8.5
PPAR activation factor, Chimer α ([2]; 12.5 μM): 6
PPAR activation factor, Chimer α ([2]; 25 μM): 4.8
PPAR activation factor, Chimer α ([2]; 50 μM): 12.5

Compound: C=CCCC(Oc1ccc(-c2ccc(OC)cc2)cc1)C(=O)O (stereo not shown) [Example 8]
melting point: 128 to 130 °C

Compound: O=C(O)C(CCC1=CCCCC1)Oc1ccc2oc3ccccc3c2c1 (stereo not shown) [Example 10]
melting point: 142 to 144 °C

Compound: O=C(O)C(CCC1=CCCCC1)Oc1ccc(-c2ccc(F)cc2)cc1 (stereo not shown) [Example 19]
melting point: 156 to 158 °C

Compound: O=C(O)C(CCC1=CCCCC1)Oc1ccc(C(F)(F)F)cc1 (stereo not shown) [Example 2, 4-cyclohex-1-enyl-2-[4-(trifluoromethyl)phenoxy]butanoic acid]
Glycaemia ([3]; 15 days, fasted four hours, mean ± standard error): 23.23 ± 5.43 mM
CHOL, % var. (percentage of variation versus control) ([3]; 15 days, not significant): +28% ns
FFA, % var. (percentage of variation versus control) ([3]; 15 days, p < 0.01 versus control): −34% **
Glycaemia, % var. (percentage of variation versus control) [3, 5]: −26% *
HDL-C, % var. (percentage of variation versus control) [3, 5]: +21% *
Triglycerides, % var. (percentage of variation versus control) [3, 5]: −55% *
CHOL (total cholesterol) [3, 6]: 6.04 ± 0.61 mM
FFA (free fatty acids) [3, 6]: 0.48 ± 0.12 mM
HDL-C [3, 6]: 4.26 ± 0.61 mM
Triglycerides [3, 6]: 1.05 ± 0.29 mM
PPAR activation factor, Chimer γ ([1]; 12.5 μM): 2.2
PPAR activation factor, Chimer γ ([1]; 25 μM): 5.2
PPAR activation factor, Chimer γ ([1]; 50 μM): 9.3
luciferase activity in the absence of the binding domain for the PPAR α or γ ligand [4]: zero
PPAR activation factor, Chimer α ([2]; 12.5 μM): 3.6
PPAR activation factor, Chimer α ([2]; 25 μM): 17.2
PPAR activation factor, Chimer α ([2]; 50 μM): 24.9
melting point: 109 to 111 °C

The next lines start with the values.

melting point: 183 °C
Compound: C=CCCC(Oc1ccc(-c2cc3ccccc3s2)cc1)C(=O)O (stereo not shown) [Example 94]

melting point: 98 °C
Compound: C=CCCC(Oc1ccc(-c2csc3ccccc23)cc1)C(=O)O (stereo not shown) [Example 93]

melting point: 61 °C
Compound: C=CCCC(Oc1ccc(Oc2ccccc2)cc1)C(=O)O (stereo not shown) [Example 87]

melting point: 120 °C
Compound: C=CCCC(Oc1ccc(-c2csc(C)n2)cc1)C(=O)O (stereo not shown) [Example 89]

melting point: 110 °C
Compound: C=CCCC(Oc1ccc(-c2cccc(F)c2)cc1)C(=O)O (stereo not shown) [Example 97]

melting point: 125 °C
Compound: C=CCCC(Oc1ccc(C(=O)/C=C/c2ccccc2)cc1)C(=O)O (stereo not shown) [Example 92]

melting point: 70 to 72 °C
Compound: C=CCCC(Oc1ccc(-c2ccc(F)c(F)c2)cc1)C(=O)O (stereo not shown) [Example 98]

melting point: 115 to 116 °C
Compound: C=CCCC(Oc1ccc(-c2ccc(OC(F)(F)F)cc2)cc1)C(=O)O (stereo not shown) [Example 95]

melting point: 95 to 98 °C
Compound: C=CCCC(Oc1ccc(-c2cc(C)ccc2C)cc1)C(=O)O (stereo not shown) [Example 90]

melting point: 125 °C
Compound: C=CCCC(Oc1cccc(OCc2ccc3ccccc3n2)c1)C(=O)O (stereo not shown) [Example 88]
